Experimental data as given in PubChem BioAssay (NCI).
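96-well plates; 48 h exposure; 5 concentrations. Endpoints by linear interpolation between flanking doses. Not reached: highest tested concentration assigned. Definition used: TGI = concentration required for complete inhibition of growth.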

What was measured:
Test in all cases: DTP human tumour cell line panel, 48 h
BT-549 breast = test system: BT-549 breast
CAKI-1 renal = test system: CAKI-1 renal
COLO 205 colon = test system: COLO 205 colon
HL-60(TB) leukemia = test system: HL-60(TB) leukemia
IGROV1 ovarian = test system: IGROV1 ovarian
LOX IMVI melanoma = test system: LOX IMVI melanoma
MDA-N = test system: MDA-N
SF-295 CNS = test system: SF-295 CNS
SF-539 CNS = test system: SF-539 CNS
SN12C renal = test system: SN12C renal
UACC-62 melanoma = test system: UACC-62 melanoma

| Compound | TGI (BT-549 breast) | TGI (CAKI-1 renal) | TGI (COLO 205 colon) | TGI (HL-60(TB) leukemia) | TGI (IGROV1 ovarian) | TGI (LOX IMVI melanoma) | TGI (MDA-N) | TGI (SF-295 CNS) | TGI (SF-539 CNS) | TGI (SN12C renal) | TGI (UACC-62 melanoma) |
| --- | --- | --- | --- | --- | --- | --- | --- | --- | --- | --- | --- |
| Nc1cc(CO)cc(Nc2c3ccccc3nc3occc23)c1 | 81.6 µM | 94.9 µM | 85.7 µM | 74.4 µM | 90.8 µM | > 100 µM | > 100 µM | > 100 µM | 69.6 µM | > 100 µM | 86.8 µM |
| Cc1ccc2c3c1O[C@H]1c4nc5ccccc5cc4C[C@@]4(O)[C@@H](C2)N(CC2CC2)CC[C@]314 | 25.5 µM | 32.7 µM | 19.3 µM | 26.1 µM | > 100 µM | 17 µM | 25.4 µM | 20.8 µM | 19.4 µM | > 100 µM | 23.5 µM |
| COC(=O)/C=C1/OC(c2ccccc2)=C(Cl)C1=O | 40.3 µM | 32.7 µM | 30.1 µM | 16.2 µM | 55.8 µM | 26.8 µM | 43 µM | > 65.1 µM | 47.1 µM | > 60.1 µM | 38.8 µM |
| Cn1c(N/N=C/c2ccc(Cl)cc2)nc(-c2ccc(Cl)cc2)c(C#N)c1=O | 67.5 µM | > 100 µM | > 100 µM | > 100 µM | 25.6 µM | 57.6 µM | > 100 µM | 41.5 µM | 45 µM | > 100 µM | 48.4 µM |
| O=C(CCCC(=O)N1CC(CCl)c2ccc([N+](=O)[O-])cc21)N1CC(CCl)c2ccc([N+](=O)[O-])cc21 (stereo not given) | > 100 µM | > 100 µM | > 100 µM | > 100 µM | – | > 100 µM | > 100 µM | > 100 µM | > 100 µM | > 100 µM | > 100 µM |
| COc1cccc(/C=C/C2=NN(c3cccc(S(=O)(=O)O)c3)C3(C2)SCC(=O)N3c2nc3ccccc3s2)c1 (stereo not given) | > 100 µM | > 100 µM | > 100 µM | > 100 µM | > 100 µM | 40.5 µM | > 100 µM | – | 37.4 µM | > 100 µM | > 100 µM |
| CN(C)c1ccc(C(c2ccc(N(C)C)cc2)c2ccc([N+](=O)[O-])cc2)cc1 | > 100 µM | > 100 µM | > 100 µM | > 100 µM | > 100 µM | > 100 µM | > 100 µM | > 100 µM | > 100 µM | > 100 µM | > 100 µM |
| NC1CCC(c2cc3ccccc3s2)(N2CCCCC2)CC1 (stereo not given) | 3.08 µM | 10.1 µM | 3.19 µM | 4.58 µM | 3.26 µM | 2.84 µM | 3.2 µM | 12.7 µM | 4.59 µM | 3.1 µM | 6.25 µM |
| CN(C)c1ccc(/C=C2\N=C(c3ccccc3)N(c3nc4c(Cl)cc(Cl)cc4s3)C2=O)cc1 | > 100 µM | > 100 µM | > 100 µM | > 100 µM | > 100 µM | > 100 µM | 56.8 µM | > 100 µM | > 100 µM | > 100 µM | > 100 µM |
| COc1ccc2c(c1)CC[C@@H]1[C@@H]2CC[C@]2(C)/C(=N/OCCN3CCCCC3)CC[C@@H]12 | 28.7 µM | 4.17 µM | 3.18 µM | 6.35 µM | 5.6 µM | 3.8 µM | 5.9 µM | 12.6 µM | 7.64 µM | 17 µM | 3.68 µM |
| O=S1(=O)c2ccccc2N2CCCc3cc(Cl)cc1c32 | > 100 µM | > 100 µM | > 100 µM | > 100 µM | > 100 µM | > 100 µM | > 100 µM | 95 µM | > 100 µM | > 100 µM | > 100 µM |
| Cc1nn(-c2ccccc2)c(C)c1/C=N/NC(=O)c1sc(=S)n(-c2ccccc2)c1N | > 100 µM | 7.53 µM | 3.55 µM | > 100 µM | 1.79 µM | 5.12 µM | > 100 µM | 6.55 µM | 25.6 µM | > 100 µM | > 100 µM |
| CC1(C)C2CCC1C(=O)C(C=O)C2 (stereo not given) | > 100 µM | > 100 µM | > 100 µM | > 100 µM | > 100 µM | > 100 µM | > 100 µM | > 100 µM | > 100 µM | > 100 µM | > 100 µM |
| CCOC(=O)/C(=C\c1ccc(CO)o1)P(=O)(OCC)OCC | 45 µM | > 100 µM | 51 µM | – | > 100 µM | 41.3 µM | 47.8 µM | > 100 µM | 40.3 µM | 96.2 µM | > 100 µM |
| CC(=O)Oc1ccc2c(c1)CC[C@@H]1C2[C@@H](O[N+](=O)[O-])C[C@@]2(C)C1CC[C@@H]2O (stereo not given in full) | > 100 µM | > 100 µM | > 88.7 µM | 34.4 µM | > 100 µM | > 81.2 µM | 27.9 µM | > 100 µM | 72.6 µM | > 100 µM | > 100 µM |
| O=C(CSC1=NCCN1)c1ccccc1 | > 100 µM | > 100 µM | > 100 µM | – | > 100 µM | > 100 µM | > 100 µM | > 100 µM | > 100 µM | > 100 µM | > 100 µM |
| CCCCCC(C)C[C@H]1CO[C@H](c2ccc[nH]2)N[C@H]1C(=O)OC (stereo not given in full) | > 100 µM | > 100 µM | > 100 µM | > 100 µM | > 100 µM | > 100 µM | > 100 µM | > 100 µM | > 100 µM | > 100 µM | > 100 µM |
| COc1ccc(CN=CN/C(C#N)=C(\N)C#N)cc1OC | > 100 µM | > 100 µM | > 100 µM | > 100 µM | > 100 µM | > 100 µM | > 100 µM | > 100 µM | > 100 µM | > 100 µM | > 100 µM |
| O=[N+]([O-])C(=C(NCc1ccccc1)NCc1ccccc1)C(Cl)=C(Cl)Cl | > 100 µM | 55.6 µM | 36.1 µM | 45.9 µM | > 100 µM | 37.8 µM | 74.7 µM | 60.8 µM | > 100 µM | > 100 µM | 98.7 µM |
